Earlier results as cited in patent US7749527B2, “Gel compositions for control of ecto-parasites” (Wyeth LLC, priority 2005, dated 2010).

Tested on: fleas and ticks
Settings: companion animals

## N#Cc1ccc(CC(=NNC(=O)Nc2ccc(OC(F)(F)F)cc2)c2cccc(C(F)(F)F)c2)cc1 [Metaflumizone, (E Z)-2-[2-(4-cyanophenyl)-1-[3-(trifluoromethyl)phenyl]ethylidene]-N-[4-(trifluoromethoxy)phenyl]hydrazinecarboxamide]
  protection from fleas and ticks: 4-6 weeks
